Reference: patent US20250059165A1, “PIPERIDINYLPYRIDINYLCARBONITRILE DERIVATIVES AS INHIBITORS OF GLUTAMINYL-PEPTIDE CYCLOTRANSFERASE AND GLUTAMINYL-PEPTIDE CYCLOTRANSFERASE LIKE PROTEIN” (Boehringer Ingelheim International GmbH, priority 2023, published 2025)

What was measured:
QPCTL = target: T1, QPCTL (Homo sapiens, UniProt Q9NXS2); test: Assay A: biochemical QPCTL activity assay (MALDI-TOF MS, CD47 peptide substrate); details: 0.5 nM enzyme, 10 μM CD47 peptide substrate; read-out: Inhibition of QPCTL: IC50
T1 construct: made in house
T1 sequence (Q9NXS2 whole entry): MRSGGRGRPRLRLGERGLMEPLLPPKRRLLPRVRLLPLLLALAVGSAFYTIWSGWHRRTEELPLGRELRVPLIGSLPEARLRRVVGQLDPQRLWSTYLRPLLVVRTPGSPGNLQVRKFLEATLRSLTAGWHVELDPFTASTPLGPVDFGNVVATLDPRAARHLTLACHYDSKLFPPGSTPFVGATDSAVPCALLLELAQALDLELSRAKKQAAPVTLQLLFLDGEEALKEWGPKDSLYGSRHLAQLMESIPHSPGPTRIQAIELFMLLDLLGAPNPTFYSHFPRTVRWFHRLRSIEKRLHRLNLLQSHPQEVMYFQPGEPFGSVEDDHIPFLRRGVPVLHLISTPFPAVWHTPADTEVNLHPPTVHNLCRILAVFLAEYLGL
Procedure: (§1) QPCT or QPCTL dependent conversion of N-terminal glutamine to pyroglutamate of CD47 was monitored via MALDI-TOF MS. Test compounds were dissolved in 100% DMSO and serially diluted into clear 1,536-well microtiter plates. […] The plates were incubated for 10 min in a humidified incubator at 24° C. Subsequently, 2.5 μL of CD47 peptide substrate surrogate (^19[…]^33) was added to each well (final concentration: 10 μM for QPCTL/20 μM for QPCT). […] The plates were sealed with an adhesive foil, mixed for 30 s at 1,000 rpm and stored at room temperature until preparation of the MALDI target plates. MALDI target plates were prepared as described previously. […] QPCT or QPCTL activity was monitored by calculating the ratio between product and internal standard signals followed by normalization to high (100% activity) and low (0% activity) controls. Determination of compound potencies was obtained by fitting the dose-response data to a four-parameter logistical equation.

[1] = tested on: SIRPα signalling induced by Raji cells; test: Assay B: SIRPα signalling assay using Raji cells; format: cell-based; details: Homo sapiens, 48 h compound incubation, Jurkat PathHunter SIRPαV1 reporter cells, read-out: Inhibition of SIRPα signalling induced by Raji cells: IC50
Procedure: (§2) Two cell types are independently used: the Raji cell line (lymphoblast-like human cell line derived from B lymphocytes from a Burkitt's lymphoma patient in 1963) and A549 cells (adenocarcinomic human alveolar basal epithelial cells).
(§3) Test compounds were dissolved in 100% DMSO and serially diluted into a white 384-well microtiter cell culture plate (PerkinElmer #60076780 in case of Raji assay; PDL-coated plates Greiner #781945 in case of A549 assay). 5000 Raji cells (ATCC #CC86) or 5000 A549 cells (ATCC #CCL-185) in Assay Complete Cell Plating reagent 30 (DiscoverX 93-0563R30B) were added per well. The assay plate was incubated for 48 h at 37° C., 95% humidity and 5% CO2. 15000 reporter cells (Jurkat PathHunter SIRPαV1, DiscoverX #93-1135C19) were added to each well, and the plate was incubated for 5 h at 37° C., 95% humidity and 5% CO2. Bioassay reagent 1 of the PathHunter Bioassay detection kit (DiscoverX 93-0001) was added to each well of the plate using a multichannel pipette followed by a 15 min incubation at room temperature. Afterwards bioassay reagent 2 was added followed by […] incubation at room temperature (incubation in the dark). The analysis of the data was performed using the luminescence signal generated by beta-galactosidase in the PathHunter reporter cell line. The luminescence measurement was done using a Pherastar Multi-Mode Reader. Dose-response curves & IC50 data were calculated with 4-parameter sigmoidal dose response formula.

[2] = Assay C: permeability in CACO-2 cells; format: in vitro ADME; details: human, pH 7.2; for efflux ratio: Caco-2, Permeability B-A/Permeability A-B; for Papp A→B: Caco-2, apical to basolateral
Procedure: Caco-2 cells (1−2×10^5 cells/1 cm^2 area) are seeded on filter inserts (Costar transwell polycarbonate or PET filters, 0.4 µm pore size) and cultured (DMEM) for 10 to 25 days. Compounds are dissolved in appropriate solvent (like DMSO, 1-20 mM stock solutions). […] The transport solution (TL) is applied to the apical or basolateral donor side for measuring A-B or B-A permeability (3 filter replicates), respectively. Samples are collected at the start and end of experiment from the donor and at various time intervals for up to 2 hours also from the receiver side for concentration measurement by HPLC-MS/MS or scintillation counting. Sampled receiver volumes are replaced with fresh receiver solution. Efflux Ratio (ER)=Permeability B-A/Permeability A-B

[3] = tested on: SIRPα signalling induced by A549 cells; test: Assay B: SIRPα signalling assay using A549 cells; format: cell-based; details: Homo sapiens, 48 h compound incubation, Jurkat PathHunter SIRPαV1 reporter cells, read-out: Inhibition of SIRPα signalling induced by A549 cells: IC50
Procedure: as §2, §3

QPCT = target: T2, QPCT (Homo sapiens, UniProt Q16769); test: Assay A: biochemical QPCT activity assay (MALDI-TOF MS, CD47 peptide substrate); details: 0.5 nM enzyme, 20 μM CD47 peptide substrate; read-out: Inhibition of QPCT: IC50
T2 construct: purchased Origine (OriGene) TP700028
T2 sequence (Q16769 29-361): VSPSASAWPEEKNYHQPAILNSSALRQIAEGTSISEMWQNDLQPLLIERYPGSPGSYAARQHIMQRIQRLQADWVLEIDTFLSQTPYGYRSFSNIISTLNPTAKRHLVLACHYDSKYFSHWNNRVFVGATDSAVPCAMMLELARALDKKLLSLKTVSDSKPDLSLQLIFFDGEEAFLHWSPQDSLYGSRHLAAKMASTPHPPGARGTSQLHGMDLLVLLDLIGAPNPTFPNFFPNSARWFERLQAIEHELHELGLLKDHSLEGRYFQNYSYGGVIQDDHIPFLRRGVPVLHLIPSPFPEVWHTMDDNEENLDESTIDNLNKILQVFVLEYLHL
Procedure: as §1

Row | SMILES | IC50 (QPCTL) [nM] | IC50 [1] [nM] | efflux ratio [2] | Papp A→B [2] [×10⁻⁶ cm/s] | IC50 [3] [nM] | IC50 (QPCT) [nM]
1 | Cn1cnnc1C1(F)CCN(c2c(C#N)ccnc2-c2cnn3nc(-c4cscc4C#N)ccc23)CC1 [Example 26] | 3 | 148 | 11.5 | 7.2 | 101 | 2
2 | Cn1cnnc1C1(F)CCN(c2c(C#N)cc(C(C)(C)O)nc2-c2ccc(F)nc2)CC1 [Example 1] | 2 | 77 | 6.3 | 8.7 | 41 | 3
